Experimental data from PMC11790914, “Chemogenomics for steroid hormone receptors (NR3)” (Communications Chemistry, 2025).
Several values for one entry are separate records, joined by “and”; a condition that tells them apart may be missing. Equal entries are not always repeated.

Assays:
[1] = tested on: ATF6 activity in Hela ATF6 reporter cells; experiment: Endoplasmic reticulum stress assay (ATF6 Renilla luciferase reporter, tunicamycin); assay type: cell-based
Outline: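 HeLa ATF6 Renilla reporter cells were pretreated 4 h with compounds in 0.1% DMSO, then stimulated with tunicamycin (100 ng/mL) for 18 h. Renilla luminescence (DualGlo) was normalized to 0.1% DMSO control; five independent experiments.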

CDK2 = molecular target: T1, CDK2 (Homo sapiens, UniProt P24941); experiment: Liability panel screening by DSF: CDK2; assay type: binding; settings: DSF, 20 µM, n=2; read-out: Mean ΔTM CDK2
T1 construct: made in house
Outline: (§1)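 ∆Tm in K was taken from Boltzmann-fitted unfolding inflection points, run in duplicate with a temperature ramp of 3 °C per minute up to 85 °C. Each recombinant protein (2 µM) was in HEPES 10 mM pH 7.5 and NaCl 500 mM, with SYPRO Orange dye at 1:1000.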

HEK293T cells [2] = experiment: Cytotoxicity: growth-rate (change in confluence over 24 h); settings: 1 µM, normalized to 0.1% DMSO control, single replicates (n=1...)
TRIM24 = molecular target: T2, TRIM24 (Homo sapiens, UniProt O15164); experiment: Liability panel screening by DSF: TRIM24; assay type: binding; settings: DSF, 20 µM, n=2; read-out: Mean ΔTM TRIM24
T2 construct: This panel comprised ten highly ligandable kinases and bromodomains; made in house
T2 sequence (O15164 899-1004 limits assumed): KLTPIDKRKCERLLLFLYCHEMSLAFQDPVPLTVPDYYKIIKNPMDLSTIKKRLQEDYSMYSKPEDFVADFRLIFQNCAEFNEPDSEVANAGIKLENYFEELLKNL
Outline: as §1

GSK3B = molecular target: T3, GSK3B (Homo sapiens, UniProt P49841); experiment: Liability panel screening by DSF: GSK3B; assay type: binding; settings: DSF, 20 µM, n=2; read-out: Mean ΔTM GSK3B
T3 construct: made in house
T3 sequence (P49841 whole entry, species assumed): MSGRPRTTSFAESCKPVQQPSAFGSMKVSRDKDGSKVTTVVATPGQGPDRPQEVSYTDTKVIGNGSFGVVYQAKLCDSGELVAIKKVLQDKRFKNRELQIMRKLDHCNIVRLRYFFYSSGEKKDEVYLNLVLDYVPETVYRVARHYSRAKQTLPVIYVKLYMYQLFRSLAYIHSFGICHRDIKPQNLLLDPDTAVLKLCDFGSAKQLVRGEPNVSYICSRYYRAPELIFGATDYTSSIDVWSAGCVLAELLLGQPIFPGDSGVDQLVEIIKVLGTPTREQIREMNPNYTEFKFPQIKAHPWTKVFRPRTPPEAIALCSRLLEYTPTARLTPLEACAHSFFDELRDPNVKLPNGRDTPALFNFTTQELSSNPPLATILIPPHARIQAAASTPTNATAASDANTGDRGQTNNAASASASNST

BRPF1 = molecular target: T4, BRPF1 (Homo sapiens, UniProt P55201); experiment: Liability panel screening by DSF: BRPF1; assay type: binding; settings: DSF, 20 µM, n=2; read-out: Mean ΔTM BRPF1
T4 construct: This panel comprised ten highly ligandable kinases and bromodomains; made in house
T4 sequence (P55201 628-732 limits assumed): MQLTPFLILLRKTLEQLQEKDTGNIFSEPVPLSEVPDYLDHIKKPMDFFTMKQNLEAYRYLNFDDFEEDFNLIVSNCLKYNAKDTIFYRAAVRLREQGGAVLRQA
Outline: as §1

[3] = tested on: NF-κB activity in HEK293 NF-κB reporter cells; experiment: NF-kB activity assay (GFP reporter, ionomycin/PMA); assay type: cell-based; settings: n=3
Outline: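 HEK293 NF-κB GFP reporter cells given compound in 0.1% DMSO for 4 h, then stimulated with ionomycin 100 ng/mL plus PMA 10 ng/mL. Imaged every 90 min over 24 h; GFP-positive cell count normalized to confluence, three independent biological replicates.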

MAPK1 = molecular target: T5, MAPK1 (Homo sapiens, UniProt P28482); experiment: Liability panel screening by DSF: MAPK1; assay type: binding; settings: DSF, 20 µM, n=2; read-out: Mean ΔTM MAPK1
T5 construct: made in house
T5 sequence (P28482 whole entry, species assumed): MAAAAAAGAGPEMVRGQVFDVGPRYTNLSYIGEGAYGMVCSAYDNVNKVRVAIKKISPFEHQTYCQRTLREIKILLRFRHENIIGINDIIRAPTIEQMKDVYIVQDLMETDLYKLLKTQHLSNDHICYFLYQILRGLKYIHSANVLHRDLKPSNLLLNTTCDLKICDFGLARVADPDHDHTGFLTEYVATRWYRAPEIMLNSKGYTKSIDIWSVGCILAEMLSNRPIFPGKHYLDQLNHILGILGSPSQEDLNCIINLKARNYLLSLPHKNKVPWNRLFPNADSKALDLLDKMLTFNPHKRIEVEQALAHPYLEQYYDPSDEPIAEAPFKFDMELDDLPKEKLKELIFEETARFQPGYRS
Outline: as §1

Gal4-VP16 = assay type: cell-based; settings: 1 µM; vs. DMSO ctrl; single replicates n=1-3
AURKA = molecular target: T6, AURKA (Homo sapiens, UniProt O14965); experiment: Liability panel screening by DSF: AURKA; assay type: binding; settings: DSF, 20 µM, n=2; read-out: Mean ΔTM AURKA
T6 construct: made in house
T6 sequence (O14965 1-403): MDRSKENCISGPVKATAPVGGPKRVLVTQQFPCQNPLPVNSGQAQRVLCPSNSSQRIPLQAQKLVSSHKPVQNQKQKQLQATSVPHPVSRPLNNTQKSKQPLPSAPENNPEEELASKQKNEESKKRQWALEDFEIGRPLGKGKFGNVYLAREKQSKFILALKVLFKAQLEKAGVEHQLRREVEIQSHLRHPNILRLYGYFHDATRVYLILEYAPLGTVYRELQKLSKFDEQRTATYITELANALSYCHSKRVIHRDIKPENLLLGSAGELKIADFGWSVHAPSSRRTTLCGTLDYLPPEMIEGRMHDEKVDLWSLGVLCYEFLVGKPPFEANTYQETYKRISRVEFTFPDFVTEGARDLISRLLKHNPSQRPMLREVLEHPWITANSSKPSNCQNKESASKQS
Outline: as §1

CSNK1D = molecular target: T7, CSNK1D (Homo sapiens, UniProt P48730); experiment: Liability panel screening by DSF: CSNK1D; assay type: binding; settings: DSF, 20 µM, n=2; read-out: Mean ΔTM CSNK1D
T7 construct: made in house
T7 sequence (P48730 whole entry, species assumed): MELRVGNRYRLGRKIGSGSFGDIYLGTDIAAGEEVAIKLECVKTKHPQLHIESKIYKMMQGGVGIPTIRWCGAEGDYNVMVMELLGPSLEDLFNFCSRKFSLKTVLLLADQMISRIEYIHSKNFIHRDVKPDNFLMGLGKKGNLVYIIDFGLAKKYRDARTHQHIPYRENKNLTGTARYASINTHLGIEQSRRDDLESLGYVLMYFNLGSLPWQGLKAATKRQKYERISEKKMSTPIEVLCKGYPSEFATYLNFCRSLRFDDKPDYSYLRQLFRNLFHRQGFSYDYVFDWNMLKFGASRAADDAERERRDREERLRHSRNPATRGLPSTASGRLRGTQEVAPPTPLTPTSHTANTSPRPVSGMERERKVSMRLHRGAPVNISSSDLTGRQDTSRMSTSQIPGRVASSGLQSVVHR
Outline: as §1

HEK293T cells [4] = experiment: Cytotoxicity: apoptosis induction (caspase-3/7 DEVD fluorogenic DNA dye); settings: 1 µM; HEK293T, 24 h; apoptotic cell count normalized to 0.1% DMSO; single replicates
ABL1 = molecular target: T8, ABL1 (Homo sapiens, UniProt P00519); experiment: Liability panel screening by DSF: ABL1; assay type: binding; settings: DSF, 20 µM, n=2; read-out: Mean ΔTM ABL1
T8 construct: made in house
T8 sequence (P00519 whole entry, species assumed): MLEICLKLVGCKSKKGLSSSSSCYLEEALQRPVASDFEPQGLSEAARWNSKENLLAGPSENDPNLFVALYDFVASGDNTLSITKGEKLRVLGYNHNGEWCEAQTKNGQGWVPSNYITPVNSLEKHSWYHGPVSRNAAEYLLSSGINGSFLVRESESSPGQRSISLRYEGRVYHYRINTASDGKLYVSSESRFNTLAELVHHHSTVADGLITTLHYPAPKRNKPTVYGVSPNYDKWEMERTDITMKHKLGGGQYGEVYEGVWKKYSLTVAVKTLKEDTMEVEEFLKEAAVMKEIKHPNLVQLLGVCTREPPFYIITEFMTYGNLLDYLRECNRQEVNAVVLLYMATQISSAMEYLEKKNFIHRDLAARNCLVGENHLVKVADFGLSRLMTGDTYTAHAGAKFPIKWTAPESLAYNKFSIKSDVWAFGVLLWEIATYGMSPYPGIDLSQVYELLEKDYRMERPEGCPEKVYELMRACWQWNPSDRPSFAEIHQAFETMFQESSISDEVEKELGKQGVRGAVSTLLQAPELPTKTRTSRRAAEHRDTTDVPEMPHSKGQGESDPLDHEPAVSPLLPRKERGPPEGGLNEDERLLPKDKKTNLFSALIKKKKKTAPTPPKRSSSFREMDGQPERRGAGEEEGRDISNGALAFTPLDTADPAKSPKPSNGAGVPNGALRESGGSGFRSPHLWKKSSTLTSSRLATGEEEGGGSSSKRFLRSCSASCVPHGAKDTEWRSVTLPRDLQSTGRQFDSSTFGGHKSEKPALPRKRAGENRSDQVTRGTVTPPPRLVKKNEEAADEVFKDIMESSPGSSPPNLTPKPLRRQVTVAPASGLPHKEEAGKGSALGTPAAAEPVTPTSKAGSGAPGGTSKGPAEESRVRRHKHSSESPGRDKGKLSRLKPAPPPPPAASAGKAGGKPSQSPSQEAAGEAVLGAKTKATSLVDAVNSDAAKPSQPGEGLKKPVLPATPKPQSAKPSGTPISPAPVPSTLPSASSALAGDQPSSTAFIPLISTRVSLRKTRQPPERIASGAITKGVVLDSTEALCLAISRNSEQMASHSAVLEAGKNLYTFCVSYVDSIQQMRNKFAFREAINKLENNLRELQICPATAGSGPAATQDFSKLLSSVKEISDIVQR
Outline: as §1

## COc1cc(/C=C(\C#N)C(=O)Nc2nnc(C(F)(F)F)s2)ccc1OCc1ccc(C(F)(F)F)cc1C(F)(F)F [XCT790]
[1]; Hela ATF6 reporter cells, tunicamycin 100 ng/mL, 18 h, compounds at recommended concentrations, n = 5
  ATF6 activity (tunicamycin-induced endoplasmic reticulum stress): lacked this effect
[1]; Homo sapiens, HeLa, 1 µM, single replicates n=1 to n=5, read-out: ER stress [rel. ATF6 activity]
  activity at 1 µM: 100%
CDK2
  ΔTm at 20 µM: 0.38 °C
HEK293T cells [2]
  Growth rate [GR]: 0.75 and 0.63 and 1.18 and 1.17 and 1.04 (2×) and 0.70 and 0.89 and 0.87 and 0.19
TRIM24
  ΔTm at 20 µM: 0.29 °C
GSK3B
  ΔTm at 20 µM: -0.62 °C
BRPF1
  ΔTm at 20 µM: -1.02 °C
[3]; 1 µM, 1,5 h
  Mean NFκB response: 3626.75 GFP+-cells/confluence ∙ 1000
[3]; 1 µM, 4,5 h
  Mean NFκB response: 4074.08 GFP+-cells/confluence ∙ 1000
[3]; 1 µM, 7,5 h
  Mean NFκB response: 7428.22 GFP+-cells/confluence ∙ 1000
[3]; 1 µM, 10,5 h
  Mean NFκB response: 16505.45 GFP+-cells/confluence ∙ 1000
[3]; 1 µM, 13,5 h
  Mean NFκB response: 23920.00 GFP+-cells/confluence ∙ 1000
[3]; 1 µM, 16,6 h
  Mean NFκB response: 29753.33 GFP+-cells/confluence ∙ 1000
[3]; 1 µM, 19,5 h
  Mean NFκB response: 33970.00 GFP+-cells/confluence ∙ 1000
[3]; 1 µM, 22,5 h
  Mean NFκB response: 37876.67 GFP+-cells/confluence ∙ 1000
[3]; 1 µM, 3 h
  Mean NFκB response: 3669.25 GFP+-cells/confluence ∙ 1000
[3]; 1 µM, 6 h
  Mean NFκB response: 4944.18 GFP+-cells/confluence ∙ 1000
[3]; 1 µM, 9 h
  Mean NFκB response: 11887.81 GFP+-cells/confluence ∙ 1000
[3]; 1 µM, 12 h
  Mean NFκB response: 20416.67 GFP+-cells/confluence ∙ 1000
[3]; 1 µM, 15 h
  Mean NFκB response: 27150.00 GFP+-cells/confluence ∙ 1000
[3]; 1 µM, 18 h
  Mean NFκB response: 32423.33 GFP+-cells/confluence ∙ 1000
[3]; 1 µM, 21 h
  Mean NFκB response: 35883.33 GFP+-cells/confluence ∙ 1000
[3]; 1 µM, 24 h
  Mean NFκB response: 39596.67 GFP+-cells/confluence ∙ 1000
MAPK1
  ΔTm at 20 µM: 0.28 °C
Gal4-VP16
  VP16 control [fold reporter gene activity]: 1.11 fold reporter gene activity and 0.95 fold reporter gene activity and 0.91 fold reporter gene activity
AURKA
  ΔTm at 20 µM: -0.27 °C
CSNK1D
  ΔTm at 20 µM: 0.0531 °C
HEK293T cells [4]
  Apoptosis induction [AI]: 0.85 (2×) and 0.75 and 0.81 and 1.26 and 1.13
ABL1
  ΔTm at 20 µM: 0.47 °C
